Measured values from ChEMBL document CHEMBL1201862, “PubChem BioAssay data set” (2004).
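Method: 48-hour compound exposure of cells in 96-well plates, five concentrations, linear interpolation of endpoints. GI50 is the concentration that inhibits growth by half.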 Activity calls are given as the source filed them. Rule as the data show it: active = GI50 up to about 1.1 µM and inactive = higher.

How the values were obtained:
Test in all cases: inhibition of tumour cell growth, NCI panel, 48 h
HT-29 = tested on: HT-29
OVCAR-5 = tested on: OVCAR-5
SF-295 = tested on: SF-295
HOP-62 = tested on: HOP-62
CAKI-1 = tested on: CAKI-1
NCI-H460 = tested on: NCI-H460
KM12 = tested on: KM12
SNB-19 = tested on: SNB-19
TK-10 = tested on: TK-10
BT-549 = tested on: BT-549
SK-OV-3 = tested on: SK-OV-3
DU-145 = tested on: DU-145
MDA-N = tested on: MDA-N
Hs-578T = tested on: Hs-578T
HL-60 = tested on: HL-60
HCC 2998 = tested on: HCC 2998
OVCAR-4 = tested on: OVCAR-4
RXF 393 = tested on: RXF 393
SR = tested on: SR

Measured: GI50

CC(=O)c1cccc(Nc2nc3ccc(Cl)cc3c3[nH]c4ccccc4c23)c1
inactive: HT-29 6.21 µM | OVCAR-5 5.79 µM | SF-295 2.45 µM | HOP-62 4.17 µM | CAKI-1 3.03 µM | NCI-H460 1.71 µM | KM12 4.94 µM | SNB-19 10.5 µM | TK-10 4.81 µM | BT-549 64.1 µM | SK-OV-3 4.15 µM | DU-145 4.35 µM | MDA-N 7.74 µM | Hs-578T 9.35 µM

CC1=CC2C(O1)C1C(=O)C=CC(=O)C1=CC2[N+](=O)[O-] (centres undefined)
inactive: HT-29 16.5 µM | OVCAR-5 24.5 µM | SF-295 18.7 µM | HOP-62 21 µM | CAKI-1 5.01 µM | NCI-H460 18.6 µM | HL-60 8.11 µM | KM12 24.3 µM | HCC 2998 > 43.7 µM | SNB-19 34.6 µM | TK-10 16.1 µM | OVCAR-4 17.3 µM | BT-549 15.8 µM | SK-OV-3 > 100 µM | DU-145 25.4 µM | MDA-N 23.1 µM | Hs-578T 18.1 µM | RXF 393 14.8 µM

C/C1=C\CC[C@@]2(C)O[C@@H]2C[C@@H]2[C@H](C/C(C)=C/CC1)OC(=O)C21CC1
inactive: HT-29 > 100 µM | OVCAR-5 > 100 µM | SR 12.7 µM | SF-295 > 100 µM | HOP-62 > 100 µM | CAKI-1 > 100 µM | NCI-H460 56.8 µM | HL-60 24.2 µM | KM12 > 100 µM | HCC 2998 > 100 µM | SNB-19 > 100 µM | TK-10 > 100 µM | BT-549 44.9 µM | SK-OV-3 > 100 µM | DU-145 59.7 µM | MDA-N 91.4 µM | RXF 393 > 100 µM

CC(=O)c1c(-c2ccccc2)c(-c2ccc(OCCN(C)C)cc2)n2ccccc12
inactive: HT-29 3.44 µM | OVCAR-5 47.8 µM | SF-295 17.2 µM | CAKI-1 18.5 µM | NCI-H460 13.2 µM | HL-60 16.3 µM | KM12 13.5 µM | HCC 2998 14.6 µM | SNB-19 19.3 µM | TK-10 17 µM | OVCAR-4 24.8 µM | BT-549 14.9 µM | SK-OV-3 19.2 µM | DU-145 16.8 µM | MDA-N 15.8 µM | Hs-578T 16.3 µM

CN(C(=O)Cc1cccc(N=C=S)c1)[C@H]1CCCC[C@@H]1N1CCCC1
inactive: HT-29 11.5 µM | OVCAR-5 19.2 µM | SR 6.73 µM | SF-295 27.6 µM | HOP-62 16.3 µM | CAKI-1 15.4 µM | NCI-H460 16.7 µM | KM12 17.9 µM | SNB-19 20.6 µM | TK-10 11.9 µM | OVCAR-4 14.7 µM | BT-549 11 µM | SK-OV-3 25.5 µM | DU-145 14.6 µM | MDA-N 14.1 µM | Hs-578T 25.3 µM | RXF 393 12.9 µM

CC(=O)OCC1OC(N2C(c3ccccc3)=CC(c3ccccc3)C(C#N)=C2S)C(OC(C)=O)C(OC(C)=O)C1OC(C)=O (centres undefined)
inactive: HT-29 2.35 µM | OVCAR-5 14.6 µM | SR 42 µM | SF-295 2.04 µM | HOP-62 4.06 µM | CAKI-1 3.08 µM | NCI-H460 5.48 µM | KM12 15.7 µM | HCC 2998 25.4 µM | SNB-19 5.96 µM | TK-10 22.2 µM | OVCAR-4 1.55 µM | BT-549 5.57 µM | DU-145 26.4 µM | MDA-N 2.02 µM | Hs-578T 3.27 µM | RXF 393 3.17 µM

S=C(N1CCN(c2cccc(Cl)c2)CC1)N1CCN(c2cccc(Cl)c2)CC1
inactive: HT-29 28.8 µM | OVCAR-5 44.1 µM | SR 13.4 µM | SF-295 39.3 µM | HOP-62 36.8 µM | CAKI-1 25.2 µM | KM12 24.4 µM | HCC 2998 17.5 µM | SNB-19 39.7 µM | TK-10 43.4 µM | OVCAR-4 28.9 µM | BT-549 75.3 µM | SK-OV-3 > 100 µM | DU-145 30.3 µM | MDA-N > 100 µM | Hs-578T 18.6 µM | RXF 393 36.6 µM

COc1ccc2nc(-n3c(/C=C/c4ccccc4O)nc4ccccc4c3=O)sc2c1
inactive: HT-29 50.2 µM | OVCAR-5 > 100 µM | SF-295 80.5 µM | HOP-62 > 100 µM | CAKI-1 46 µM | NCI-H460 > 100 µM | HL-60 43.4 µM | KM12 64.4 µM | HCC 2998 > 100 µM | SNB-19 35.5 µM | TK-10 > 100 µM | OVCAR-4 > 100 µM | BT-549 27.5 µM | SK-OV-3 > 100 µM | DU-145 > 100 µM | MDA-N 17 µM | Hs-578T > 100 µM | RXF 393 71.6 µM
